According to US11351144B2, “Compounds for inhibiting secretory leukocyte protease inhibitor (SLPI)” (The General Hospital Corporation, priority 2017, dated 2022):
“Also recorded” adds a separate entry of the source.

How the values were obtained:
[1] = test system: SLPI expression (luciferase plasmid driven by the SLPI promoter); assay: High-throughput screening: luciferase reporter driven by the SLPI promoter in MDA-MB-468 cells; type: cell-based, human; conditions: 0.31 to 5 μM (five concentrations), 24 hours
Description: Human triple-negative MDA-MB-231, LS174T, HEK293T and MCF-7 and MDA-MB 468 cell lines were obtained from the ATCC collection. MDA-MB-468 cells stably expressing luciferase plasmid driven by the SLPI promoter were used for high-throughput screening. To generate SLPI overexpressing cells, cancer cells were infected with pBabe-SLPI retroviruses containing the LTR promoter and puromycin resistant genes. The SLPI knockdown 4T1 cell line was established by lentiviral infection of 4T1 cells. Lentiviral particles were produced by transfecting 293T cells with two different shRNA clones that targeted SLPI (MISSION shRNA Sigma) and viral packages (VSVG,psPAX2) using FuGENE reagent (Promega, US). SLPI down-regulation was confirmed by using both q-PCR and ELISA.
After establishing that SLPI is a valid target for inhibiting TNBC metastasis, small molecules for use in inhibiting SLPI pharmacologically were screened. Human TNBC cell line MDA-MB-468 with a Luciferase plasmid driven by the SLPI promoter was used to perform high-throughput screening of a small-molecule library of 60,000 chemically-diverse compounds. Compounds (5 μM) were diluted in 100% DMSO, and spotted per well to 384-well plates using a Multimek 96/384 Channel Automated Pipetter. A cell-based readout system was used for compound selection. […] Selected compounds were also analyzed with 90% of SLPI repression. […]

MDA-MB-468 cancer cells = assay: MTT cell viability assay, MDA-MB-468; type: cell-based, human; conditions: MDA-MB-468 cells, 24 hours
4T1 cancer cells = assay: MTT cell viability assay, 4T1; type: cell-based, murine; conditions: 4T1 cells, 24 hours
[2] = test system: normal human umbilical vein endothelial cells (HUVEC); assay: MTT cell viability assay, HUVEC; type: cell-based; conditions: 24 hours
4T1 TNBC = assay: Orthotopic 4T1 TNBC tumor growth and spontaneous lung metastases in BALB/c mice; type: in vivo
Description: Next, we tested whether treatment with the selected SLPI inhibitor C74 would decrease metastasis in vivo. Parental and modified 4T1 cells were injected into the third mammary fat pad of 8-week-old female BALB/C mice, 10^5 cells in 20 μL of HANKS per injection. The growing tumors were then either resected at a certain size or left as is. In the latter case, the mice were treated daily with intraperitoneal (i.p.) delivery of 20 mg/kg of the selected compound suppressing SLPI (or vehicle), for 12 consecutive days starting from day 6 after tumor implantation, when tumors were ˜3.8 mm in diameter on average (see FIG. 3D). The mice were sacrificed either on day 21 post primary tumor resection or 17 days after compound treatment initiation. The lungs were removed and placed in Bouin's solution (Sigma). A few days later, the lung surface was examined under a stereomicroscope and the number and size of metastases were evaluated.

[3] = test system: retinoblastoma (Rb) tumor suppressor protein phosphorylation; assay: Western blot of Rb phosphorylation in MDA-MB-231 and MCF7 cells; type: cell-based, human
Description: Lysates from 293T, MDA-MB-231, MCF7 and 4T1 cells were prepared in lysis buffer containing Tris-HCl 50 mM/pH 7.4; NaCl 150 mM; NP-40 1%; SDS 0.1%; Na-deoxycholate 0.5%; EDTA 1 mM; plus 1% phosphatase inhibitor cocktails I and II (Sigma-Aldrich, US), and 1% protease inhibitor cocktail (Roche). Equal amounts of protein (50 μg/sample) were resolved by SDS-PAGE, transferred onto nitrocellulose membranes, and immunoblotted using the following primary antibodies: anti-SLPI, anti-RB (Cell Signaling and Santa Cruz Biotechnology, US), anti-SOD2, Aurora kinase, cyclin B1 and anti-β-catenin (Cell Signaling Technology). For co-IP assays, lysates were pre-cleared with IgG, and incubated with anti-SLPI, anti-RB or control IgG antibodies linked to Sepharose-A beads. Protein complexes were dissociated from beads and separated by SDS-PAGE. Immunodetection was performed by incubation with HRP-conjugated species-specific antibodies, followed by chemiluminescence detection (Perkin Elmer, US).

Rb-FoxM1 interaction = assay: Mammalian two-hybrid system, GAL4-Rb and VP16-FoxM1 in HEK293T cells; type: cell-based, human; conditions: 1.5 μg/mL added to cell media, time course
Description: For further verification of this interaction, a standard mammalian two-hybrid approach was used. The two genes encoding two of the three potentially interactive proteins of interest (Rb, SLPI and FoxM1) were cloned into pBIND and pACT vectors to generate fusion proteins with the DNA-binding domain of GAL4 and the activation domain of VP16. HEK293T cells were transiently transfected with a pG5luc luciferase reporter plasmid, pGAL4 and pVP16 fusion constructs. After two days, the transfected cells were lysed and the levels of luciferase were quantitated. Interaction between the two test proteins results in an increase in luciferase expression over the negative controls that included pBIND and pACT vectors. The pairs of fusion proteins GAL4-Rb plus VP16-SLPI induced activation of the reporter construct about 7 times more than the negative controls, as shown in FIG. 4C.

[4] = test system: FoxM1 binding to the MMP2 promoter; assay: Electrophoretic mobility shift assay, FoxM1 binding to MMP2 promoter probe; type: cell-based, human; conditions: protein extracts from treated MDA-MB-231 cells versus untreated cells
Description: To directly test the ability of SLPI to modify FoxM1 binding to another target gene, MMP2, we used the electrophoretic mobility shift assay. Electrophoretic mobility shift assays (EMSAs) were performed following manufacture protocol using kit from Thermo Fisher. Double-stranded oligonucleotides from MMP2 promoter with FoxM1 binding site were used: 5′-[…]-3′ (SEQ ID NO: 1). End-labelled DNA was detected using streptavidin-conjugated horseradish peroxidase. For the supershift assay, antibody against FoxM1 (Cell Signaling) was added to the binding reaction for 1 hour on ice.
The MMP2 promoter sequence comprising the FoxM1-binding site (−662 to −671 bp) was biotin-labeled and used as a probe for the protein binding gene promoter region (see e.g., Dai et al, Oncogene, 2007, 26:6212-6219). The probe was incubated with protein extracts from SLPI-treated MDA-MB-231 cells and untreated cells. […] The binding of this protein to the probe was sequence-specific, as it was blocked by competition with an unlabeled FoxM1 oligomer. To confirm that FoxM1 bound to MMP2 promoter in the presence of SLPI, a supershift assay was performed by adding FoxM1-binding antibody to that protein-DNA complex. The enhanced probe retardation is shown in lane 5 in FIG. 6A.

[5] = 20 mg/kg i.p. daily for 12 days, lungs evaluated on day 23

Row | changes in mouse weight, appearance, or behavior (4T1 TNBC; 20 mg/kg i.p. daily for 12 days) | Molecule | SLPI expression quantified using luciferase activity driven by the SLPI promoter [1] | toxic effect (cell viability, MTT assay) (MDA-MB-468 cancer cells) | toxic effect (cell viability, MTT assay) (4T1 cancer cells) | toxic effect (cell viability, MTT assay) [2] | decrease of total number of lung metastases (4T1 TNBC; [5]) [%] | size of lung metastatic colonies (4T1 TNBC; [5]) | primary tumor growth (tumor diameter) (4T1 TNBC; 4T1 in mammary fat pad, 20 mg/kg i.p. daily for 12 days from day 6, 20 mg/kg) | Rb phosphorylation (phospho-Rb Western blot) ([3]; 1 μM for 16 h) | Rb phosphorylation (phospho-Rb Western blot) ([3]; recombinant protein 1.5 μg/mL, as early as 1-2 h post treatment) | reporter construct activation (Rb-FoxM1 binding) (Rb-FoxM1 interaction) | binding activity of FoxM1 to MMP2 promoter probe [4]
1 | did not cause changes | CCCOC(=O)c1cccc(NC(=O)COc2ccccc2Cl)c1 [Compound C74, propyl 3-(2-(2-chlorophenoxy)acetamido)benzoate] | inhibition of SLPI expression; also recorded: Dose dependence of SLPI repression was confirmed | no toxic effect | no toxic effect | no toxic effect | 50 | much smaller | suppressed tumor growth and metastasis; also recorded: small, progressive inhibition of primary tumor growth | repressed Rb phosphorylation; also recorded: decreased phosphorylation of Rb |  |  | 
2 |  | recombinant SLPI protein: recombinant secretory leukocyte protease inhibitor protein added to cells at 1.5 μg/mL (protein, UniProt P03973 26-132, looked up) Antileukoproteinase: SGKSFKAGVCPPKKSAQCLRYKKPECQSDWQCPGKKRCCPDTCGIKCLDPVDTPNPTRRKPGKCPVTYGQCLMLNPPNFCEMDGQCKRDLKCCMGMCGKSCVSPVKA |  |  |  |  |  |  |  |  | increased phosphorylation of Rb | progressive decrease of reporter construct activation | substantial increase in binding activity of FoxM1
